SMILES strings stand for the structures.

Take `CC(C)CC(C)c1ccccc1NC(=O)c1cn(C)cc1C(F)(F)F` (centres unmarked): the melting point fell in the range of 83 to 85 °C.
In the case of `COCn1cc(C(=O)Nc2ccccc2C(C)CC(C)C)c(C(F)(F)F)c1` (centres unmarked), the melting point lay in the range of 75 to 77 °C.

Values taken from US7105565B2 (dated 2006).
